Source: PMC12903969, “Discovery of a Novel and Potent Kir4.1 Inhibitor as a Safe and Rapid‐Onset Antidepressant Agent in Mice” (Advanced Science, 2025)
“And” between values parts separate entries of the source, which are not always exact repeats. Equal values may be shown once.

Key:
[1] = system: mice; assay: Hippocampal inflammatory cytokines (IL-6, TNF-α) after 14-day administration; format: in vivo; parameters: IL-6 / TNF-α: unit not given here; details: for IL-6 / TNF-α: hippocampus, 14-day administration, individual animals
[2] = system: primary cortical astrocytes (native Kir4.1 channels); assay: Patch clamp of primary cultured WT astrocytes (native Kir4.1); format: cell-based, mouse
Protocol: Astrocytes were isolated and cultured as previously described.^[ [16] ^] Briefly, the cortices from P1‐P4 mouse pups were dissected and incubated for 25 min in Hank's Balanced Salt Solution (22.5 ml) with 2.5% trypsin (2.5 ml) at 37 °C. Cells were dissociated in cultured medium (DMEM/F12 supplemented with 10% fetal bovine serum and 1% penicillin and streptomycin) and filtered with a 70‐µm cell strainer. Cell suspensions were cultured in PDL‐pretreated 75‐cm^2 flasks for the initial seven days, with half of the medium replaced every 2 days. Subsequently, the cultures were shaken at 220 rpm for 6 h at 37 °C to remove microglia and oligodendrocytes from the astrocyte layers. The astrocytes were harvested, reseeded in two new flasks, and cultured in an incubator for 14 days. For Kir4.1 deletion in cell cultures, 4‐OH tamoxifen (final concentration: 1 µM, Felixbio) was added into Kir4.1^flox/flox: Aldh1l1‐Cre/ERT2 cortical cultures at DIV 2 and DIV 4, respectively, and completely removed at DIV7 when astrocytes were reseeded in fresh culture medium.
(§1) Whole‐cell patch‐clamp recordings were obtained either in transiently transfected CHO‐K1 cells or in primary cultured astrocytes at room temperature using standard patch‐clamp techniques with an Axopatch‐700B amplifier (Axon Instruments). The signals were filtered at 2 kHz and sampled at 20 kHz using the Digidata 1440A interface (Axon Instruments). The resistance of borosilicate glass pipettes was typically 2–4 MΩ when filled with the internal solution. Drug application was facilitated using a BPS perfusion system (ALA Scientific Instruments). Macroscopic currents generated by expressed potassium channels were recorded under the voltage‐clamp conditions with an internal pipette solution composed of (in mM): 140 KCl, 5 NaCl, 1 CaCl2, 1 MgCl2, 10 HEPES, and 10 EGTA, pH 7.2 adjusted with KOH. The external solution contained (in mM): 140 NaCl, 5 KCl, 2 CaCl2, 1 MgCl2, 10 glucose, and 10 HEPES, pH 7.4 adjusted with NaOH. Currents were elicited with a hyperpolarized voltage at −120 mV from the holding potential of −80 mV, followed by a ramp voltage depolarizing to +50 mV. Astrocytic resting membrane potentials were recorded under current‐clamp conditions (I = 0 pA) using standard internal and external solutions, determined immediately after achieving whole‐cell mode.

[3] = biological target: T1, GluN1/GluN2B NMDA receptor (Homo sapiens, UniProt Q05586+Q13224); assay: Patch clamp of GluN1/GluN2B NMDA receptors in stable HEK293T cells; format: cell-based
T1 construct: expressed in transfected cells
T1 sequence (Q13224 27-1484, other chains not shown): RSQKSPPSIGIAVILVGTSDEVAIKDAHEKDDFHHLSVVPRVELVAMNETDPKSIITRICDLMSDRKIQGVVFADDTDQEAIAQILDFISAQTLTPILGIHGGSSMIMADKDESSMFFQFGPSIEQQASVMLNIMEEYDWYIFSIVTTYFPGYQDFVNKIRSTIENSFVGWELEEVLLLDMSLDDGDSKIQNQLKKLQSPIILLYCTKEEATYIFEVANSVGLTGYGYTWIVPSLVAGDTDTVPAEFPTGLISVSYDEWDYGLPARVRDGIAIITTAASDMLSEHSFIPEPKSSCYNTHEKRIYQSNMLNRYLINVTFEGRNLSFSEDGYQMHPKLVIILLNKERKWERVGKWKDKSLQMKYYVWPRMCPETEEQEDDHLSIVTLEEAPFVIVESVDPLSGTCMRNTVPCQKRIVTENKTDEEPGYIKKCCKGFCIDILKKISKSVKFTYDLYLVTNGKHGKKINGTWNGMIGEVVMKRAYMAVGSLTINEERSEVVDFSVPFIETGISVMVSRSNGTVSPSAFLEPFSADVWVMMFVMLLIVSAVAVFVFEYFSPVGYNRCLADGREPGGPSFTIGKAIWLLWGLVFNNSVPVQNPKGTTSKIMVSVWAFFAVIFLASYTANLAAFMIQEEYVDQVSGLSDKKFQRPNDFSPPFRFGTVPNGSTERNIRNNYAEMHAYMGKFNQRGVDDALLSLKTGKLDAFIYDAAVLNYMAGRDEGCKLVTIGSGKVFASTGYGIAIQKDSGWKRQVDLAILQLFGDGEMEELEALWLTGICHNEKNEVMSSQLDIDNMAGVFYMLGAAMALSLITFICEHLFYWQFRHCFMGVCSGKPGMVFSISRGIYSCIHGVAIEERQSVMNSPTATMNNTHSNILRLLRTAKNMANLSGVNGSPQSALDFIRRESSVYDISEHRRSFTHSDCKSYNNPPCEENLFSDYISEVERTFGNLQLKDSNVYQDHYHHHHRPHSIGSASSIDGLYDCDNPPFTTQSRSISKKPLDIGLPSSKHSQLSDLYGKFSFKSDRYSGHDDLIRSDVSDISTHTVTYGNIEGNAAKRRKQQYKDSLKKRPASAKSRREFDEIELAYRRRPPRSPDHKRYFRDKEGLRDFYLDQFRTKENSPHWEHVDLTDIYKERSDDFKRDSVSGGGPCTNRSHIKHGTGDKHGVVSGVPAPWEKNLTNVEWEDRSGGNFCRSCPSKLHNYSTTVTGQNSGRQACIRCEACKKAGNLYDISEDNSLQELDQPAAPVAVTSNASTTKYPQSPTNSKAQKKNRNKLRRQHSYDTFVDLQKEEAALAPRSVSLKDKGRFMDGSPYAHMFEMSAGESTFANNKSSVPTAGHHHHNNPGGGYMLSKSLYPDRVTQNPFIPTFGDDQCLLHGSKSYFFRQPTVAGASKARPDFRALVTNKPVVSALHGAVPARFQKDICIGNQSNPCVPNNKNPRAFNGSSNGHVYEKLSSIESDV
Excerpt: For recording of GluN1/GluN2B NMDA receptors, HEK293T cells stably expressing GluN1 and GluN2B subunits were voltage‐clamped at −60 mV. […] The pipette solution contained (in mM):115 CsF, 10 CsCl, 10 HEPES and 10 BAPTA (pH 7.2 adjusted by CsOH). The bath solution contained (in mM): 140 NaCl, 2.8 KCl, 1 CaCl2, 10 HEPES and 20 sucrose (pH 7.4 adjusted with NaOH).

[4] = system: C57BL/6J mice; assay: Open field test (OFT) after chronic administration; format: in vivo; details: chronic 10 mg kg−1 per day
Protocol: This test was used to assess anxiety‐related behaviors in the mice. C57BL/6J mice were individually habituated to a 40 × 40 × 40 cm^3 open field arena under dim light for […]. Locomotor activity during the final 5 min was digitally recorded (30 fps) and analyzed using Tracking Master (Future Life Science (Shanghai) Co., Ltd., Shanghai, China). The primary endpoints included the total ambulatory distance (cm) and center‐zone exploration frequency (20 × 20 cm^2 central area).

[5] = system: C57BL/6J mice after CSDS; assay: CSDS model, forced swim test; format: in vivo; details: single i.p. injection 10 mg kg−1
Protocol: The 10‐day CSDS paradigm was conducted as previously described.^[ [24] ^] CD‐1 aggressive mice were singly housed in defeat cages on one side of a perforated plexiglass partition 24 h before the defeat session. Experimental C57BL/6J mice were placed daily on the resident cage side of a novel CD‐1 aggressor that rapidly initiated a physical attack on the intruder. After 10‐min of social defeat, the intruder mice were housed on the opposite side of the partition within a shared home cage, experiencing further sensory contact for the subsequent 24 h. In contrast, control mice were maintained in their home cages and allowed to explore the empty defeat cages for 10 min each day.
Mice were placed individually in a transparent glass cylinder (25 cm high, 10 cm wide) filled with water (temperature 23–25 °C) to a depth of 10 cm, and prevented from making contact with the bottom. Mice behaviors were videotaped from each side. The observation period lasted for 6 min, with the final 4 min used to measure immobile behavior, which was processed using the AnyMaze Tracking System (Stoelting).

[6] = system: mice; assay: Treadmill test (TT); format: in vivo; details: chronic 10 mg kg−1 per day
Protocol: This test was designed to quantify locomotor endurance in rodents. The time (300 s) and speed (maximum: 30 rpm) parameters for the treadmill were set using a digital panel and the mice were placed in lanes. Gentle electrical probes (0.3 mA) served as motivational stimuli. Total distance traveled was automatically recorded using rotary encoder integration.

[7] = biological target: KCNQ2 (Homo sapiens, UniProt O43526); assay: KCNQ2 channel inhibition; format: cell-based; parameters: KCNQ2 inhibition, single recordings: unit not given here
Excerpt: as §1

Q: What does the source list for `c1ccc2c(c1)oc1ccc(Nc3ccnc(NCCCN4CCOCC4)n3)cc12` [JX3212, N^4-(dibenzo[b,d]furan-2-yl)-N^2-(3-morpholinopropyl)pyrimidine-2,4-diamine]?
A: hippocampal interleukin-6 level (in words) ([1]; 3/10 mg kg−1 for 14 days): did not elevate; hippocampal tumor necrosis factor-alpha level (in words) ([1]; 3/10 mg kg−1 for 14 days): did not elevate; IL-6 ([1]; 3 mg/kg): 45.0571 and 32.8331 and 24.8073 and 32.2935 and 22.1265 and 25.6335 and 36.1041 and 30.8941 and 28.8202 and 44.6187 and 40.1844 and 35.7837 and 22.7841 and 20.9462 and 42.3088; TNF-α ([1]; 3 mg/kg): 465.065 and 545.129 and 550.438 and 437.245 and 389.037 and 473.135 and 223.18 and 189.621 and 460.606 and 247.598 and 569.127 and 488.638 and 325.113 and 294.957; IL-6 ([1]; 10 mg/kg): 35.0924 and 32.8836 and 20.727 and 32.5464 and 25.9876 and 35.1767 and 33.4906 and 33.3389 and 29.4778 and 46.0519 and 38.6332 and 35.1936 and 20.9968 and 23.4416 and 42.3425; TNF-α ([1]; 10 mg/kg): 489.276 and 552.137 and 604.805 and 420.68 and 480.356 and 484.816 and 216.59 and 243.988 and 478.02 and 253.544 and 531.962 and 451.261 and 319.804 and 494.16; astrocytic resting membrane potential (in words) ([2]; JX3212 3 µM, BaCl2 100 µM): marked depolarization; astrocytic macroscopic slope conductance (in words) ([2]; WT astrocytes, 3 µM): partially impaired the macroscopic slope conductance; astrocytic potassium currents (in words) ([2]; WT astrocytes, 3 µM): notably decreased potassium currents; IC50 [3]: 23.7 µM; GLUN1/N2B inhibition, single recordings ([3]; concentration 10): 16.1554 and 31.4381 and 16.8072 and 24.8566; GLUN1/N2B inhibition, single recordings ([3]; concentration 30): 75.9494 and 77.336 and 42.6087; GLUN1/N2B inhibition, single recordings ([3]; concentration 50): 84.1069 and 85.4244 and 96.0913; GLUN1/N2B inhibition, single recordings ([3]; concentration 100 (unit not given)): 91.8425 and 90.7749 and 99.6717 and 97.1777; GLUN1/N2B inhibition, single recordings ([3]; concentration 300μ): 98.8477 and 99.3957 and 98.8626; OFT total and central distance traveled (in words) [4]: no pronounced differences; CSDS: immobility in FST (in words) [5]: reduced immobility duration; treadmill running distance vs vehicle (in words) [6]: showed no significant effects; IC50 [7]: 5.99 µM; KCNQ2 inhibition, single recordings ([7]; concentration 3): 22.0588 and 21.8921 and 13.4681; KCNQ2 inhibition, single recordings ([7]; concentration 10): 79.5346 and 67.5255 and 78.5615; KCNQ2 inhibition, single recordings ([7]; concentration 30 (unit not given)): 97.6879 and 84.1578 and 95.4545
